Assay [1] addresses Lysine-specific histone demethylase 1A (Homo sapiens, UniProt O60341).
Description: Inhibition of human recombinant LSD1 using fluorogenic ADHP based substrate preincubated for 30 mins followed by substrate addition measured after 10 mins by horseradish peroxidase coupled fluorescence assay
The subject of the next assay is THP-1. Kind of assay: cells. The note with it: Homo sapiens, THP-1, 72 h.
In the next assay the test system is MCF7. Kind of assay: cells. The note with it: Homo sapiens, MCF7, 72 h.
Another assay relates to PC-3. Kind of assay: cells. The conditions noted are these: Homo sapiens, PC-3, 72 h.
The test system of the next assay is MGC-803. Kind of assay: cells. The note with it: Homo sapiens, MGC-803, 72 h.
A further assay deals with A549. Kind of assay: cells. The conditions noted are these: Homo sapiens, A549, 72 h.
A further assay has as its system NB-4. In words: cells. The note with it: Homo sapiens, NB-4, 72 h.

As a reminder, the pIC50 is the negative decadic logarithm of the IC50, by convention in mol/L. A low value points to a large IC50.

pIC50: −log10 of the molar value. Where only a bound is given, the exact number is not on record here.

Description for A549: Antiproliferative activity against human A549 cells incubated for 72 hrs by CCK8 assay
Description for MCF7: Antiproliferative activity against human MCF7 cells incubated for 72 hrs by CCK8 assay
Description for MGC-803: Antiproliferative activity against human MGC-803 cells incubated for 72 hrs by CCK8 assay
Description for NB-4: Antiproliferative activity against human NB-4 cells incubated for 72 hrs by CCK8 assay
Description for PC-3: Antiproliferative activity against human PC-3 cells incubated for 72 hrs by CCK8 assay
Description for THP-1: Antiproliferative activity against human THP-1 cells incubated for 72 hrs by CCK8 assay

`Cn1nc(C(=O)Nc2cccc3c2N(Cc2ccc(OC4CCNCC4)cc2)CCC3)c2ccccc21` showed a pIC50 in assay [1] of 9.01.

For the compound `O=C(Nc1cccc2c1N(Cc1ccc(OC3CCNCC3)cc1)CCC2)c1cc2ccccc2n1CCCl`, the pIC50 in assay [1] is 9.82.

Consider `O=C(Nc1cccc2c1N(Cc1ccc(OC3CCNCC3)cc1)CCC2)c1cc2ccccc2o1`, for which the pIC50 in assay [1] is 9.28.

In assay [1], `O=C(Nc1cccc2c1N(Cc1ccc(OC3CCNCC3)cc1)CCC2)c1ccc2ccccc2n1` had a pIC50 of 7.88.

`O=C(Nc1cccc2c1N(Cc1ccc(OC3CCNCC3)cc1)CCC2)c1ccc(C(F)(F)F)nc1` gave a pIC50 in assay [1] below 7.30.

Compound `Cn1c(C(=O)Nc2cccc3c2N(Cc2ccc(OC4CCNCC4)cc2)CCC3)cc2ccc(Cl)cc21` had a pIC50 in assay [1] of 8.95.

In assay [1], `Cn1ccc2cccc(C(=O)Nc3cccc4c3N(Cc3ccc(OC5CCNCC5)cc3)CCC4)c21` gave a pIC50 of 8.35.

`O=C(Nc1cccc2c1N(Cc1ccc(OC3CCNCC3)cc1)CCC2)c1cc2ccccc2n1C(F)F` had a pIC50 in assay [1] of 9.41.

Take `Cn1c(C(=O)Nc2cccc3c2N(Cc2ccc(OCC4CCNCC4)cc2)CCC3)cc2sccc21`: the pIC50 with THP-1 was 4.69; with MCF7, 5.18; in the assay with PC-3 it was 5.39; in the assay on MGC-803 it was 5.43; in assay [1], 7.42; in the assay with A549, 5.55. In the assay on NB-4, this compound had a pIC50 of 5.54.

In the case of `Cn1c(C(=O)Nc2cccc3c2N(Cc2ccc(OCc4ccc([N+](=O)[O-])cc4)cc2)CCC3)cc2sccc21`, the pIC50 in assay [1] is below 4.30.

For the compound `O=C(Nc1cccc2c1N(Cc1ccc(OC3CCNCC3)cc1)CCC2)c1nc2ccccc2[nH]1`, the pIC50 in assay [1] is 8.64.

`Cn1c(C(=O)Nc2cccc3c2N(Cc2ccc(OCc4ccc(C(N)=O)cc4)cc2)CCC3)cc2sccc21` gave a pIC50 in assay [1] below 4.30.

`N[C@H]1CC[C@H](N[C@H]2C[C@@H]2c2ccccc2)CC1`: the pIC50 with THP-1, in the assay with MCF7, with PC-3, with MGC-803, in the assay on A549 and in the assay with NB-4 was below 4.52 each time.

Consider `O=C(Nc1cccc2c1N(Cc1ccc(OC3CCNCC3)cc1)CCC2)c1cc2ccccc2n1CC(F)F`, for which, in assay [1], the negative-log IC50 (pIC50) is 9.11.

`Cn1c(C(=O)Nc2cccc3c2N(Cc2ccc(OCc4ccc(C#N)cc4)cc2)CCC3)cc2sccc21` gave a pIC50 in assay [1] below 4.30.

For the compound `Cn1c(C(=O)Nc2cccc3c2N(Cc2ccc(OCCCN)cc2)CCC3)cc2sccc21`, in assay [1], the pIC50 was 7.32.

`CN(C)c1cccc(COc2ccc(CN3CCCc4cccc(NC(=O)c5cc6sccc6n5C)c43)cc2)c1` had a pIC50 in assay [1] below 4.30.

As to `O=C(Nc1cccc2c1N(Cc1ccc(OC3CCNCC3)cc1)CCC2)c1ccc(C(F)(F)F)cc1F`, the pIC50 in assay [1] was 8.29.

As to `Cn1c(C(=O)Nc2cccc3c2N(Cc2ccc(OC4CCNC4)cc2)CCC3)cc2sccc21` (stereo unspecified), the results for the pIC50 (in assay [1]; with A549) were 7.33 and 5.44, respectively.

Consider `Cn1c(C(=O)Nc2cccc3c2N(Cc2ccc(O[C@H]4CC[C@H](N)CC4)cc2)CCC3)cc2sccc21`, for which the pIC50 in assay [1] is 7.44.

Take `Cn1c(C(=O)Nc2cccc3c2N(Cc2ccc(OCc4cccc(C(N)=O)c4)cc2)CCC3)cc2sccc21`: the pIC50 in assay [1] is below 4.30.

In turn, `CN1CCC(COc2ccc(CN3CCCc4cccc(NC(=O)c5cc6sccc6n5C)c43)cc2)CC1` gave a pIC50 in assay [1] of 7.27.

Consider `Cn1c(C(=O)Nc2cccc3c2N(Cc2ccc(OC4CCNCC4)cc2)CCC3)cc2sccc21`, for which the pIC50 in the assay with THP-1 is 4.74; in the assay with MCF7 it was 5.24; with PC-3 it was 5.44; with MGC-803, 5.66; in assay [1], 7.44; in the assay on A549, 5.90. For the same compound, the pIC50 in the assay with NB-4 is 5.56.

Take `Cn1c(C(=O)Nc2cccc3c2N(Cc2ccc(OC[C@H]4CCNC4)cc2)CCC3)cc2sccc21`: the pIC50 in assay [1] was 6.83.

Compound `Cn1c(C(=O)Nc2cccc3c2N(Cc2ccc(OCc4ccc(N)cc4)cc2)CCC3)cc2sccc21` showed a pIC50 in assay [1] below 4.30.

Regarding `CN1CCC(Oc2ccc(CN3CCCc4cccc(NC(=O)c5cc6sccc6n5C)c43)cc2)CC1`, the pIC50 in assay [1] was 7.42.

Regarding `Cc1ccc2c(c1)cc(C(=O)Nc1cccc3c1N(Cc1ccc(OC4CCNCC4)cc1)CCC3)n2C`, in assay [1], the pIC50 is below 7.30.

In turn, `O=C(Nc1cccc2c1N(Cc1ccc(OC3CCNCC3)cc1)CCC2)c1cc2ccccc2s1` showed a pIC50 in assay [1] of 9.03.

Regarding `Cn1ccc2c(C(=O)Nc3cccc4c3N(Cc3ccc(OC5CCNCC5)cc3)CCC4)cccc21`, the pIC50 in assay [1] was 8.41.

Consider `O=C(Nc1cccc2c1N(Cc1ccc(OC3CCNCC3)cc1)CCC2)c1cc2ccccc2n1CC1CC1`, for which, in assay [1], the negative-log IC50 (pIC50) was 8.58.

Take `O=C(Nc1cccc2c1N(Cc1ccc(OC3CCNCC3)cc1)CCC2)c1cc2ccccc2[nH]1`: the pIC50 in assay [1] is 8.55.

As for `Cn1c(C(=O)Nc2cccc3c2N(Cc2ccc(OCc4cccc([N+](=O)[O-])c4)cc2)CCC3)cc2sccc21`, the pIC50 in assay [1] is below 4.30.

In the case of `CN(C)CCCOc1ccc(CN2CCCc3cccc(NC(=O)c4cc5sccc5n4C)c32)cc1`, the pIC50 in assay [1] was 7.51.

Consider `Cn1c(C(=O)Nc2cccc3c2N(Cc2ccc(OCC4CCOCC4)cc2)CCC3)cc2sccc21`, for which the pIC50 in assay [1] was 6.14.

Regarding `O=C(Nc1cccc2c1N(Cc1ccc(OC3CCNCC3)cc1)CCC2)c1cccc2[nH]ccc12`, the pIC50 in assay [1] was 9.27.

Consider `O=C(Nc1cccc2c1N(Cc1ccc(OC3CCNCC3)cc1)CCC2)c1nc2ccccc2s1`, for which the pIC50 in assay [1] is 9.04.

For the compound `Cn1c(C(=O)Nc2cccc3c2N(Cc2ccc(O[C@H]4CC[C@@H](N)CC4)cc2)CCC3)cc2sccc21`, the pIC50 was 7.42 in assay [1] and 5.14 in the assay on A549.

Turning to `Cc1ccncc1C(=O)Nc1cccc2c1N(Cc1ccc(OC3CCNCC3)cc1)CCC2`, the pIC50 in assay [1] was 8.81.

With `Cn1c(C(=O)Nc2cccc3c2N(Cc2ccc(OC[C@@H]4CCNC4)cc2)CCC3)cc2sccc21`, the pIC50 in assay [1] was 7.10; with A549 it was 5.28.

Turning to `COc1ccc2c(c1)cc(C(=O)Nc1cccc3c1N(Cc1ccc(OC4CCNCC4)cc1)CCC3)n2C`, the pIC50 in assay [1] was below 7.30.

In assay [1], `Cn1cc(C(=O)Nc2cccc3c2N(Cc2ccc(OC4CCNCC4)cc2)CCC3)c2ccccc21` had a pIC50 of 8.34.

In assay [1], `Cn1ccc2cc(C(=O)Nc3cccc4c3N(Cc3ccc(OC5CCNCC5)cc3)CCC4)ccc21` gave a pIC50 of 7.59.

`O=C(Nc1cccc2c1N(Cc1ccc(OC3CCNCC3)cc1)CCC2)c1ccc2[nH]ccc2c1`: the pIC50 in assay [1] was 8.34.

`CNc1cccc(COc2ccc(CN3CCCc4cccc(NC(=O)c5cc6sccc6n5C)c43)cc2)c1` had a pIC50 in assay [1] below 4.30.

The compound `Cn1c(C(=O)Nc2cccc3c2N(Cc2ccc(O[C@H]4CC[C@H](N(C)C)CC4)cc2)CCC3)cc2sccc21` showed a negative logarithm of the IC50 (pIC50) in assay [1] of 7.44.

As for `Cn1c(C(=O)Nc2cccc3c2N(Cc2ccc(OC4CCNCC4)cc2)CCC3)cc2cc(Cl)ccc21`, in assay [1], the pIC50 is 7.79.

`CC(C)n1c(C(=O)Nc2cccc3c2N(Cc2ccc(OC4CCNCC4)cc2)CCC3)cc2ccccc21` had a negative logarithm of the IC50 (pIC50) in assay [1] of 9.74.

Regarding `Cn1c(C(=O)Nc2cccc3c2N(Cc2ccc(OCc4cccc(C#N)c4)cc2)CCC3)cc2sccc21`, in assay [1], the pIC50 is below 4.30.

With `CCCn1c(C(=O)Nc2cccc3c2N(Cc2ccc(OC4CCNCC4)cc2)CCC3)cc2ccccc21`, the pIC50 in assay [1] is 8.82.

In assay [1], `O=C(Nc1cccc2c1N(Cc1ccc(OC3CCNCC3)cc1)CCC2)c1ccc(C(F)(F)F)cc1` gave a pIC50 of 8.74.

For `O=C(Nc1cccc2c1N(Cc1ccc(OC3CCNCC3)cc1)CCC2)c1cnc2ccccc2c1`, the pIC50 in assay [1] is 7.73.

(Values after ChEMBL document CHEMBL4680245, “Design, synthesis and biological evaluation of tetrahydroquinoline-based reversible LSD1 inhibitors” (Eur J Med Chem, 2020).)
